From patent publication US8440686B2, “Nalmefene prodrugs” (Janssen Pharmaceutica NV, priority 2008, dated 2013) come the findings set out here.

This data set can be described thus: In vivo PK studies in dog (oral administration): plasma levels of nalmefene. The conditions noted are these: oral administration of nalmefene itself. The protocol: C.2. In vivo PK Studies in Dog (Oral Administration): Plasma Levels of Nalmefene
Doses at 10 mg/kg or 20 mg/kg body weight of a compound of formula (I) or of nalmefene itself in a solution of 20% HP-β-CD (hydroxypropyl-β-cyclodextrines) were used and orally administered to dogs.
Blood samples were taken over a period of 192 hours after oral administration. Blood samples were processed to obtain plasma. Plasma samples were analysed individually for nalmefene by means of a qualified LC-MS/MS-method.

Structures are written as SMILES.

`C=C1CC[C@@]2(O)[C@H]3Cc4ccc(O)c5c4[C@@]2(CCN3CC2CC2)[C@H]1O5` [nalmefene, 17-cyclopropylmethyl-4,5α-epoxy-6-methylenemorphinan-3,14-diol]: the “time for which plasma levels of nalmefene can be measured after oral administration” value is given as “a few hours”.
